The source of these data is doi:10.1101/2024.10.27.620470v1 (biorxiv, 2024).

As usually defined, the IC50 is the concentration that inhibits the measured activity by half. Lower therefore signals higher potency.

G3BP1NTF-2-GFP, sequence (Q13283 1-139): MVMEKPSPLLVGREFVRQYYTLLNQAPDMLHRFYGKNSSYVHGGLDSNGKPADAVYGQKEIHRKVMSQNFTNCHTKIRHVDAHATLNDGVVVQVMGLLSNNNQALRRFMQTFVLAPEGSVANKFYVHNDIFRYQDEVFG

The test concerns the target G3BP1NTF-2-GFP (Homo sapiens, UniProt Q13283). Nature of the test: fluorescence plate PPI inhibition assay. It is filed as biochemical.
Take `CN1C[C@H](C(=O)N[C@]2(C)O[C@@]3(O)[C@@H]4CCCN4C(=O)[C@H](Cc4ccccc4)N3C2=O)C[C@@H]2c3cccc4[nH]cc(c34)C[C@H]21` [Dihydroergotamine]: the IC50 stood at 13.2 ± 5.8 µM.
As for `O=C1NCN(c2ccccc2)C12CCN(CCCC(c1ccc(F)cc1)c1ccc(F)cc1)CC2` [Fluspirilene], the figure is 10.5 ± 1.8 µM; as for `CNC(=O)c1c(F)cccc1Nc1nc(Nc2cc3c(cc2OC)CCN3C(=O)CN(C)C)nc2[nH]ccc12` [GSK1838705A], 14.5 ± 4.9 µM; as for `COc1ccc(Br)cc1S(=O)(=O)NC(=O)/C=C/c1ccccc1Cc1ccc2ccccc2c1` [L-798106], 11.6 ± 4.5 µM.
With `CC[C@H](NC(=O)c1c(C)c(-c2ccccc2)nc2ccccc12)c1ccccc1` [SB_222200], 13 ± 0.6 µM corresponded to half-maximal inhibition (IC50).
